One data set relates to HEK293T cells. The data set is described as follows: Cell viability assay (CellTiter Glo). The conditions noted are these: for IC50: Homo sapiens, HEK-293T, log10 transformed, IC50 = concentration that suppresses 50% cell viability, HEK293T cells; for Therapeutic index: ratio of IC50 (cell viability) over EC50 (NPEPPS activity). It counts as cell-based, human. The protocol:
HEK293T cells (AATC) were maintained in complete media and cell viability assay was conducted in a fresh-prepared minimal medium containing essential amino acids, vitamin, AlbuMax (Invitrogen 11021-029) in 1×HBS buffer. White 384-well assay plates (Greiner EK-30080) were coated with poly-L-ornithine (0.1 mg/ml) overnight and washed once with 1×PBS. 15 μl minimal medium was then added to each well. 250 nl of compounds dissolved in OmniSolve DMSO were pinned to each well via Biomek FX^P Liquid Handling Automation from compound source plates. Cells were harvested, resuspended in minimal medium, and seeded at 16,500 cells/15 μl/well in the 384-well assay plates. 24 hrs later, 25 μl/well CellTiter Glo reagent (Promega G7572) was added into each well, and luminescence (0.5 second integration time) was acquired following manufacture's protocol. Luminescence count normalized to DMSO control is used as a readout of cell viability.
(§1) To investigate the effects of JMM compounds that enhance NPEPPS activity and assess their cellular toxicity, 139 compounds in the JMM series (i.e., JMM001-JMM139) were tested in dose responses (20-step, 2-fold dilution) using NPEPPS activity and viability assays in HEK293T cells. 76 compounds harboring different modifications produce concentration-dependent enhancement on NPEPPS activity compared to DMSO control (FIG. 4). […] A therapeutic index (TI, a ratio of IC50 over EC50) is used to evaluate the relative safety profiles of the compounds. […] 16 JMM compounds show both improved potency and reduced toxicity (EC50<10 μM and TI>10, Table 1).

The next data set deals with T1, NPEPPS (Homo sapiens, UniProt P55786).
T1 construct: endogenous in cells; host or cells: HEK293T
Briefly: Cell-based NPEPPS activity assay (Q-AMC fluorescence). Conditions: log10 transformed; EC50 = concentration that elevates 50% NPEPPS activity (150% of DMSO baseline); HEK293T cells. The protocol:
HEK293T cells (AATC) were maintained in a complete media containing DMEM (Gibco 11995-065) in the presence of 10% fetal bovine serum (FBS, Gibco 10082147), […] penicillin and 50 μg/ml streptomycin (Gibco 15140163) at 37° C. with 5% CO2. NPEPPS activity assay was conducted in a fresh-prepared minimal medium containing essential amino acids, vitamin, AlbuMax (Invitrogen 11021-029) in 1×HBS buffer. Black wall, clear bottom 384-well assay plates (Greiner EK-30092) were coated with poly-L-ornithine (0.1 mg/ml, Sigma P3655) overnight and washed once with 1×PBS. 15 μl minimal medium was then added to each well. 250 nL of compounds dissolved in OmniSolve methylsulfoxide (dimethyl sulfoxide, DMSO, Sigma MX1456P) were pinned to each well via Biomek FX^P Liquid Handling Automation (Beckman Coulter) from compound source plates, i.e., either pre-made compound libraries or JMM compounds (20-step, 2-fold dilution) dissolved in OmniSolve DMSO prepared via Biomek automation in 384-well clear V-bottom polypropylene microplates (ThermoScientific 50-823-639). Cells were harvested, resuspended in minimal medium, and seeded at 16,500 cells/15 μl/well in the 384-well assay plates. 24 hrs later, 30 μl 200 μM H-Gln-AMC hydrobromide salt (Q-AMC, Bachem #I-1175) in 1×HBS containing 0.1% DMSO was added into each well. The fluorescent signal at excitation/emission wavelengths of 360/460 nm was measured immediately upon Q-AMC addition and 3 hrs post-Q-AMC. The change in fluorescence is measured as a readout of NPEPPS activity.
To identify small molecules that either increase NPEPPS levels or NPEPPS activity, a cell-based NPEPPS activity assay amenable to high-throughput screening (HTS) by adapting a fluorescent peptidase activity assay^2 was developed. Since NPEPPS is one of the only aminopeptidases capable of cleaving glutamine-peptide bonds^3 and the major aminopeptidase responsible for degradation of poly-glutamine sequences in the brain^4, a fluorogenic compound, glutamine-7-amino-4-methylcoumarin (Q-AMC), was selected as a substrate to measure NPEPPS activity. The peptide bond of Q-AMC is hydrolyzed by NPEPPS to release glutamine and a fluorescent product, 7-amino-4-methylcoumarin (AMC), when Q-AMC is added directly to the cell culture media. This change in fluorescence is measured as a readout of aminopeptidase activity (FIG. 2A). Overexpression of NPEPPS in HEK293T cells results in a significant increase in fluorescence, whereas knock-down or chemical inhibition of NPEPPS decrease fluorescence change (FIG. 2B-D), validating that the changes in fluorescence observed in the Q-AMC-based assay directly correlate with changes in NPEPPS activity. A high-throughput (HTS) screen (201,845 compounds) was conducted at the UCLA MSSR core (FIG. 2E). Follow-up assays and chemical clustering identified three series of compounds with distinct chemical clusters (FIG. 2F).
as §1

SMILES strings stand for the structures.

T1 sequence (P55786 whole entry): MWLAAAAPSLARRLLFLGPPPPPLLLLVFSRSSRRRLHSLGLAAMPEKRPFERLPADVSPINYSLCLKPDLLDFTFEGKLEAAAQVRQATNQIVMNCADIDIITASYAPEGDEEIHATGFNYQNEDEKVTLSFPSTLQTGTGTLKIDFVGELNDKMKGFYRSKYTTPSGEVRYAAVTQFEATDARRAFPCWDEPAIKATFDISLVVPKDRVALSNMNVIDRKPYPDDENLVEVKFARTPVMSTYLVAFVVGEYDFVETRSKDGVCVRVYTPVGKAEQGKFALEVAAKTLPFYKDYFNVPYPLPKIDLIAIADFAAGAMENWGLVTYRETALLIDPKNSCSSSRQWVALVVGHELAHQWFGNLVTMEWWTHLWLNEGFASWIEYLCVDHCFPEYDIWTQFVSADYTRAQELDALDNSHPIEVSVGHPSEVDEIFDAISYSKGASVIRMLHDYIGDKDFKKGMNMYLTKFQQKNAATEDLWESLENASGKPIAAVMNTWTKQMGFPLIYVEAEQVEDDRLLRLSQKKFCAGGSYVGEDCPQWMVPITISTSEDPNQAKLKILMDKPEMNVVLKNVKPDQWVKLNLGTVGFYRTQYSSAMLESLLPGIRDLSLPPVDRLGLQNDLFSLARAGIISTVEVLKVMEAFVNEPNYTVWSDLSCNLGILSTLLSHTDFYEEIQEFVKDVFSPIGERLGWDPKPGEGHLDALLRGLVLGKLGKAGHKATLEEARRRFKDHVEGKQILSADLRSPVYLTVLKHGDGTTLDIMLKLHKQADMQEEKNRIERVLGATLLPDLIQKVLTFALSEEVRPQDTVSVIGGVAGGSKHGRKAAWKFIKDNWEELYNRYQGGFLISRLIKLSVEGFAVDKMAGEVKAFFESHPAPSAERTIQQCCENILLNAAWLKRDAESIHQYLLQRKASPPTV

In the case of `COc1ccc(CN(C)c2nsc3ccc(OCc4ccccc4)cc23)cc1` [JMM107, 5-(Benzyloxy)-N-(4-methoxybenzyl)-N-methylbenzo[d]isothiazol-3-amine], in the data set with HEK293T cells, half-maximal inhibition (IC50) required 87.1 µM and the Therapeutic index is on record as 1.04. Also, the EC50 (as a rule, the midpoint of the concentration-response curve) on NPEPPS was 85.1 µM.
Turning to `COc1ccc(CNc2nsc3c(Br)cccc23)cc1OC` [JMM041], in the data set with HEK293T cells, the concentration for half-maximal inhibition (IC50) – broadly, the concentration at which inhibition is half-maximal – is 245 µM and the Therapeutic index was determined as 2.37. The compound further gave an EC50 on NPEPPS of 105 µM.
With `Clc1ccc(CNc2nsc3ccc(OCc4ccccc4)cc23)cc1Cl` [JMM090], in the data set on HEK293T cells, inhibition was half-maximal at 30.9 µM (IC50) and the Therapeutic index came to 1.39. Also, the EC50 at NPEPPS was 22.4 µM.
Regarding `COc1ccc(CNc2nsc3ccc(OC)cc23)cc1` [JMM097], in the data set on HEK293T cells, the IC50 was 229 µM and the Therapeutic index is 0.57. The EC50 on NPEPPS is 398 µM.
Take `FC(F)(F)Sc1ccc(CNc2nsc3ccccc23)cc1` [JMM081]: in the data set with HEK293T cells, the half-maximal inhibitory concentration (IC50) was 66.1 µM and the Therapeutic index is given as 10.45. This compound also gave an EC50 at NPEPPS of 6.31 µM.
As to `Clc1ccc(CNc2nsc3ccccc23)cc1Cl` [JMM021], in the data set on HEK293T cells, the midpoint of inhibition, the IC50, lay at 58.9 µM and the Therapeutic index worked out at 1.80. In addition, at NPEPPS, the EC50 was 32.4 µM.
The corresponding values for `FC(F)(F)c1ccc(CNc2nsc3cnccc23)cc1` [JMM065] are 132 µM, 5.91 and 22.4 µM.
For `COc1ccc2snc(N(C)Cc3ccc(OCc4ccccc4)cc3)c2c1` [JMM095], in that order: 72.4 µM, 9.25 and 7.76 µM.
As for `c1ccc2c(NCc3ccc4c(c3)OCCO4)nsc2c1` [JMM017], in the data set on HEK293T cells, the IC50 is 204 µM and the Therapeutic index worked out at 0.71. The EC50 at NPEPPS is 288 µM.
With `FC(F)(F)c1ccc(CNc2nsc3ccccc23)c(C(F)(F)F)c1` [JMM061], in the data set on HEK293T cells, inhibition was half-maximal at 72.4 µM (IC50) and the Therapeutic index was 6.85. This compound had an EC50 at NPEPPS of 10.5 µM.
Regarding `Cc1ccccc1COc1ccc(CNc2nsc3ccc(OCc4ccccc4)cc23)cc1` [JMM114, 5-(Benzyloxy)-N-(4-((2-methylbenzyl)oxy)benzyl)benzo[d]isothiazol-3-amine], in the data set on HEK293T cells, inhibition was half-maximal at 63.1 µM (IC50) and the Therapeutic index came to 2.42. Moreover, a half-maximal response on NPEPPS (EC50) required 26.3 µM.
The corresponding values for `Fc1cccc2c(NCc3ccccc3C(F)(F)F)nsc12` [JMM056] are 81.3 µM, 2.34 and 34.7 µM.
Turning to `c1ccc(C(Nc2nsc3ccccc23)c2ccccc2)cc1` [JMM029], in the data set on HEK293T cells, it took 324 µM to reach half-maximal inhibition (IC50) and the Therapeutic index came out at 45.28. The compound also gave an EC50 at NPEPPS of 7.08 µM.
As to `Clc1ccc2snc(NCc3ccc(OCc4ccccc4)cc3)c2c1` [JMM129, N-(4-(Benzyloxy)benzyl)-5-chlorobenzo[d]isothiazol-3-amine], in the data set on HEK293T cells, the IC50 is 661 µM and the Therapeutic index came out at 24.01. This compound had an EC50 at NPEPPS of 27.5 µM.
As to `FC(F)(F)c1ccc(CNc2n[nH]c3ccccc23)cc1` [JMM038], in the data set on HEK293T cells, the IC50 was 105 µM and the Therapeutic index is reported as 1.06. Besides, on NPEPPS, a half-maximal response (EC50) required 100 µM.
Consider `FC(F)c1ccc(CNc2nsc3ccccc23)cc1` [JMM063], for which, in the data set on HEK293T cells, half-maximal inhibition (IC50) was put at 195 µM and the Therapeutic index turned out to be 1.33. The compound further showed an EC50 on NPEPPS of 148 µM.
As for `COc1ccc2snc(NCc3ccc(OCc4ccccc4)cc3)c2c1` [JMM094], in the data set on HEK293T cells, the IC50 was 178 µM and the Therapeutic index is reported as 4.80. The EC50 at NPEPPS was 37.2 µM.
For `FC(F)(F)c1ccc(COc2ccc(CNc3nsc4ccccc34)cc2)cc1` [JMM031], in the data set with HEK293T cells, 77.6 µM corresponded to half-maximal inhibition (IC50) and the Therapeutic index is listed as 10.38. Besides, the EC50 at NPEPPS was 7.41 µM.
With `CN(Cc1ccc(OCc2ccc(Cl)c(Cl)c2)cc1)c1nsc2ccc(OCc3ccccc3)cc12` [JMM109, 5-(Benzyloxy)-N-(4-((3,4-dichlorobenzyl)oxy)benzyl)-N-methylbenzo[d]isothiazol-3-amine], in the data set on HEK293T cells, the concentration for half-maximal inhibition (IC50) was 60.3 µM and the Therapeutic index is 14.99. In addition, on NPEPPS, the EC50 is 4.07 µM.
On to `Fc1ccc2snc(NCc3ccc(OCc4ccccc4)cc3)c2c1` [JMM130, N-(4-(Benzyloxy)benzyl)-5-fluorobenzo[d]isothiazol-3-amine], for which, in the data set on HEK293T cells, the IC50 is 224 µM and the Therapeutic index turned out to be 3.56. Also, on NPEPPS, the EC50 is 63.1 µM.
Consider `COc1ccc(C(Nc2nsc3ccccc23)c2ccc(OC)cc2)cc1` [JMM053], for which, in the data set with HEK293T cells, half-maximal inhibition (IC50) was put at 3390 µM and the Therapeutic index is reported as 335.12. At NPEPPS, this compound gave an EC50 of 10 µM.
Regarding `FC(F)(F)c1cccc(CNc2nsc3ccccc23)c1` [JMM032], in the data set on HEK293T cells, the concentration for half-maximal inhibition (IC50) is 3090 µM and the Therapeutic index was determined as 62.09. Besides, on NPEPPS, the EC50 was 50.1 µM.
With `COc1ccc(CNc2nsc3ccccc23)cc1` [JMM003], in the data set with HEK293T cells, the IC50 is 263 µM and the Therapeutic index is reported as 1.03. This compound gave an EC50 at NPEPPS of 257 µM.
In the case of `FC(F)(F)c1ccc(CNc2nsc3c(Br)cccc23)cc1` [JMM028], in the data set with HEK293T cells, the IC50 was 33.9 µM and the Therapeutic index is recorded as 1.19. At NPEPPS, this compound showed a concentration for a half-maximal effect (EC50) of 28.8 µM.
The corresponding values for `Fc1cc(Cl)ccc1CNc1nsc2ccccc12` [JMM022] are 6460 µM, 34.72 and 186 µM.
For `c1ccc(CNc2nsc3ccccc23)cc1` [JMM009], in that order: 224 µM, 1.76 and 129 µM.
Consider `FC(F)(F)c1ccc(CNc2noc3ccccc23)cc1` [JMM039], for which, in the data set with HEK293T cells, the IC50 was 61.7 µM and the Therapeutic index is given as 3.03. For the same compound, on NPEPPS, the midpoint of the response, the EC50, lay at 20.4 µM.
As to `CN(Cc1ccc(OCc2ccccc2)cc1)c1nsc2ccccc12` [JMM091], in the data set with HEK293T cells, the IC50 is 174 µM and the Therapeutic index came to 1.19. Besides, the EC50 on NPEPPS is 145 µM.
On to `CN(Cc1ccc(OCc2ccc(Cl)cc2)cc1)c1nsc2ccc(OCc3ccccc3)cc12` [JMM108, 5-(Benzyloxy)-N-(4-((4-chlorobenzyl)oxy)benzyl)-N-methylbenzo[d]isothiazol-3-amine], for which, in the data set on HEK293T cells, the IC50 is 40.7 µM and the Therapeutic index is 7.13. For the same compound, it took 5.62 µM to reach a half-maximal effect at NPEPPS (EC50).
As to `COc1ccc(C(=O)Nc2nsc3ccccc23)cc1OC` [JMM002], in the data set with HEK293T cells, the IC50 is 1410 µM and the Therapeutic index is 1.36. The midpoint of the response on NPEPPS, the EC50, lay at 1020 µM.
Turning to `CN(Cc1ccccc1)c1ccc(CNc2nsc3ccc(OCc4ccccc4)cc23)cc1` [JMM125, N-(4-(Benzyl(methyl)amino)benzyl)-5-(benzyloxy)benzo[d]isothiazol-3-amine], in the data set with HEK293T cells, it took 603 µM to reach half-maximal inhibition (IC50) and the Therapeutic index is reported as 14.75. The same compound gave a concentration giving a half-maximal response (EC50) at NPEPPS of 40.7 µM.

Values taken from US20240174625A1, “COMPOSITIONS AND METHODS FOR TREATING TAUOPATHIES” (The Regents of the University of California, priority 2021, published 2024).
